Data on three compounds can be found in patent publication US20120058983A1, “Adenosine A1 agonists for the treatment of glaucoma and ocular hypertension” (BAYER PHARMA AKTIENGESELLSCHAFT, priority 2010, published 2012).

The test system of one series is Wistar rats. The series is described as follows: IOP measurements in rats (topical administration to the eye; IOP and hemodynamic parameters). It is filed as in vivo, rat. As for the experimental part: Wistar rats with a body weight of about 300 g were anesthetized with isoflurane (2-3% in O2:N2O=1:2). The test compounds were diluted in 0.9% sodium chloride and given by topical administration to the eye in 10 μl volume at a concentration of 10 mg/ml. IOP was measured with a rebound tonometer (TonoLab) at different time points after application of the drugs. Ocular pressure and effects of hemodynamic parameters can be monitored in this model.
N^6-Cyclopentyl-Adenosine and Example 1 reduce IOP at a volume of 10 μl (concentration 10 mg/ml).

In a further series the test system is rabbits. The following applies: rabbits (Lit. 6,7,8); cited from earlier work.
The subject of another series is cynomolgus monkeys. The following applies: cynomolgus monkeys (Lit. 9); cited from earlier work.

On to `OC[C@H]1O[C@@H](n2cnc3c(NC4CCCC4)ncnc32)[C@H](O)[C@@H]1O` [N^6-Cyclopentyl-Adenosine], for which, in the series with Wistar rats (Wistar rats, 10 mg/ml (FIG. 2)), the “effects on mean arterial blood pressure / hemodynamic parameters” value was “significantly reduces blood pressure”. Also, the IOP result with Wistar rats (anesthetized Wistar rats, 10 μl volume, concentration 10 mg/ml, rebound tonometer (FIG. 1)) is recorded as “reduce IOP”.

For `C[C@H](Cc1ccccc1)Nc1ncnc2c1ncn2[C@@H]1O[C@H](CO)[C@@H](O)[C@H]1O` [R-PIA, R(−)-N-6-(2-phenylisopropyl)adenosine], the intraocular pressure entry in the series with rabbits and in the series on cynomolgus monkeys was “lower intraocular pressure” in each case.

Consider `OC[C@H]1O[C@@H](n2cnc3c(NC4CCCCC4)ncnc32)[C@H](O)[C@@H]1O` [CHA, N6-cyclohexyl-adenosine], for which the intraocular pressure entry with rabbits and in the series on cynomolgus monkeys was “lower intraocular pressure” each time.
